Data on nine compounds can be found in patent publication US8664221B2 (Santen Pharmaceutical Co., Ltd., priority 2008, dated 2014).

As usually defined, the Emax is the greatest response seen or fitted, relative to the assay's reference.

The subject of assay [1] is IL-6 production induced by lipopolysaccharide (LPS) in human corneal epithelial cells (HCE-T). The assay is described as follows: Inhibition of LPS-induced IL-6 production in human corneal epithelial cells (GR agonist activity). It is filed as cell-based. The note with it: Corneal epithelial cell, 10 μL of 100 μM test compound solution per well, 4 hours incubation, efficacy relative to DEX. On the procedure: In order to evaluate a GR agonist activity of the present compound, the inhibitory effects on the IL-6 production induced by lipopolysaccharide (LPS) in human corneal epithelial cells. IL-6 levels in the conditioned medium were measured using the HTRF human IL-6 Kit (boehringer-Ingelheim, Cat No. 62IL6PEB), and the procedure was carried out according to the protocol attached to the kit. Hereinafter, the specific method will be described.
LPS solution: After LPS was dissolved in phosphate buffer solution (hereinafter referred to as PBS(−)), the resulting solution was diluted with 10% FBS-DMEM/F12 medium, whereby a 1 μg/mL LPS solution was prepared.
After a test compound was dissolved in dimethylsulfoxide (hereinafter referred to as DMSO), the resulting solution was diluted with 10% FBS-DMEM/F12 medium, whereby a 100 μM test compound solution was prepared. A 100 μM DEX solution was prepared by the same method, and the inhibitory ratio of IL-6 production of DEX was evaluated to use for calculating efficacy (% DEX).
Used cell: SV40-immortalized human corneal epithelial cells (HCE-T) (RIKEN)
1) HCE-T cells were harvested, and seeded at 2.0×10^4 cells/0.1 mL/well in a 96-well plate.
2) After incubation overnight, the medium was removed and a 80 μL of new 10% FBS-DMEM/Ham's F12 medium was added into each well.
3) A 10 μL of test compounds solution was added into each well.
4) A 10 μL of LPS solution was added into each well.
5) As a negative control, a 10 μL of 10% FBS-DMEM/Ham's F12 medium was added into each well instead of a test compound solution and a LPS solution.
6) As a positive control, a 10 μL of 10% FBS-DMEM/Ham's F12 medium containing 1% DMSO was added into each well instead of a test compound solution.
7) After 4 hours incubation, supernatants were collected and IL-6 levels in the supernatants were quantitated using the HTRF human IL-6 Kit.
8) The inhibition ratio of IL-6 production (%) was calculated according to the following equation.
The inhibition ratio of IL-6 production (%) was calculated according to the following equation. The inhibition ratio of IL-6 production (%)=100×{1−(IL-6 level in each group−mean value of IL-6 level in negative control)/(mean value of IL-6 level in positive control−mean value of IL-6 level in negative control)} (%)
Furthermore, the inhibition ratio of IL-6 production (efficacy (% DEX)) was also calculated according to the following equation. Efficacy(% DEX)=100×{(mean value of IL-6 inhibition in compound-treated group)/(mean value of IL-6 inhibition in DEX-treated group)} (%) (Results and Discussion)

Assay [2] deals with allergic conjunctivitis model in mice. The assay is described as follows: Inhibitory effect on vascular hyper-permeability in allergic conjunctivitis model. The note with it: male BALB/c mice, ovalbumin-sensitized; 1% (W/V) suspension instilled 15 min, 1 hr and 3 hrs before ovalbumin; Evans blue dye leakage; mean of 6 eyes. Type of assay: in vivo. On the procedure:
In order to evaluate anti-allergic effect of the present compound, the inhibitory effect on the vascular hyper-permeability in allergic conjunctivitis model in mice was examined. This effect was calculated based on dye leakages of vehicle-treated group (control group) and test compound-treated group.
By adding 0.5% polysorbate 80/saline to the test compound, a 1% (W/V) test compound suspension was prepared.
1) Ovalbumin absorbed on aluminum hydroxide gel was dissolved in saline (20 μg ovalbumin/mL), and male BALB/c mice, 6 weeks old, were actively sensitized to the antigen by intraperitoneal injections of 500 μL of it.
2) On the 6th day from sensitization, sensitized mice were boosted by additional intraperitoneal injections of 500 μL ovalbumin absorbed on aluminum hydroxide gel (20 μg ovalbumin/mL).
3) On the 11th day, 12th day, 13th day, 14th day and 15th day from the first sensitization, allergic conjunctivitis were induced by instillations to the right eyes of the mice of […] of 50% glycerol solution containing 15% (W/V) ovalbumin.
4) […] of test compound suspension per eye was instilled to the right eye of the above mice 15 min, 1 hr and 3 hrs before ovalbumin instillation (three times) on the 15th day from sensitization. In vehicle-treated group (control group), the mice were instilled with 0.5% polysorbate 80/saline in substitution for test compound suspension.
5) Just before ovalbumin instillation on the 15th day from sensitization, all animals received a tail intravenous injection of 0.1% Evans blue dye. The right periocular tissues of the mice, which were the leaked parts of dye, were collected 30 min after ovalbumin instillation. The dye was extracted from the tissues with the dye extraction liquid. Then the absorbance of the dye extract was measured. The dye leakage was calculated from the absorbance value, and the inhibition ratio of the vascular hyper-permeability of test compound-treated group was calculated according to calculation equation 1. The inhibition ratio of the vascular hyper-permeability of test compound-treated group (%)=(1−Ax/Ao)×100 (Calculation Equation 1) • Ao: Dye leakage in vehicle-treated group (control group) • Ax: Dye leakage in test compound-treated group (Test Results and Discussion)

As for `CCCCS(=O)(=O)Oc1ccc(-c2ccc3c(c2COc2cc(F)ccc2C)N(C)C(=O)C(C)(C)N3)c(OC)c1` [Compound No. 1-5, 7-(4-Butylsulfonyloxy-2-methoxyphenyl)-8-(5-fluoro-2-methyl-phenoxymethyl)-1,3,3-trimethyl-3,4-dihydro-1H-quinoxalin-2-one], the Emax in assay [1] was 88%. The “The inhibition ratio of the vascular hyper-permeability (%)” value (“The inhibition ratio … (%)” below) in assay [2] stood at 30%.

In assay [1], `COc1cc(OS(=O)(=O)C2CCCC2)ccc1-c1ccc2c(c1COc1cc(F)ccc1C)N(C)C(=O)C(C)(C)N2` [Compound No. 1-16, 7-(4-Cyclopentylsulfonyloxy-2-methoxyphenyl)-8-(5-f1uoro-2-methylphenoxymethyl)-1,3,3-trimethly-3,4-dihydro-1H-quinoxalin-2-one] gave a maximal response (Emax) of 91%. In assay [2], the “The inhibition ratio … (%)” value worked out at 18%.

The compound `COc1ccccc1NCc1c(-c2ccc(OS(=O)(=O)C3CCCC3)cc2OC)ccc2c1N(C)C(=O)C(C)(C)N2` [Compound No. 2-6, 7-(4-Cyclopentylsulfonyloxy-2-methoxypheny1)-8-(2-methoxyphenylaminomethyl)-1,3,3-trimethyl-3,4-dihydro-1H-quinoxalin-2-one] yielded an Emax in assay [1] of 82%. Besides, the “The inhibition ratio … (%)” value in assay [2] stood at 13%.

`CCCS(=O)(=O)Oc1ccc(-c2ccc3c(c2COc2cc(F)ccc2C)N(C)C(=O)C(C)(C)N3)c(OC)c1` [Compound No. 1-2, 8-(5-Fluoro-2-methylphenoxymethyl)-7-(2-methoxy-4-propyl-sulfonyloxyphenyl)-1,3,3-trimethyl-3,4-dihydro-1H-quinoxalin-2-one] showed an Emax in assay [1] of 91%. For the same compound, in assay [2], the “The inhibition ratio … (%)” value was 37%.

Consider `COc1cc(OS(=O)(=O)CCC(F)(F)F)ccc1-c1ccc2c(c1COc1cc(F)ccc1C)N(C)C(=O)C(C)(C)N2` [Compound No. 1-12, 8-(5-Fluoro-2-methylphenoxymethyl)-7-[2-methoxy-4-(3,3,3-trifluoro-propylsulfonyloxy)phenyl]-1,3,3-trimethyl-3,4-dihydro-1H-quinoxlin-2-one], for which the Emax in assay [1] stood at 100%. The “The inhibition ratio … (%)” value in assay [2] turned out to be 15%.

In assay [1], `CCCS(=O)(=O)Oc1ccc(-c2ccc3c(c2COC(=O)c2ccc(C)s2)N(C)C(=O)C(C)(C)N3)c(OC)c1` [Compound No. 1-22, 7-(2-Methoxy-4-propylsulfonyloxyphenyl)-8-(5-methylthiophen-2-ylcarbonyloxymethyl)-1,3,3-trimethyl-3,4-dihydro-1H-quinoxalin-2-one] gave a maximum response (Emax) of 99%. The “The inhibition ratio … (%)” value in assay [2] worked out at 21%.

With `CCCS(=O)(=O)Oc1ccc(-c2ccc3c(c2CNc2cc(F)ccc2C)N(C)C(=O)C(C)(C)N3)c(OC)c1` [Compound No. 1-44, 8-(5-Fluoro-2-methylphenylaminomethyl)-7-(2-methoxy-4-propyl-sulfonyloxyphenyl)-1,3,3-trimethyl-3,4-dihydro-1H-quinoxalin-2-one], the maximal effect (Emax) in assay [1] is 88%. The “The inhibition ratio … (%)” value in assay [2] is recorded as 22%.

`COc1cc(OS(=O)(=O)C(C)C)ccc1-c1ccc2c(c1COC(=O)c1ccc(C)s1)N(C)C(=O)C(C)(C)N2` [Compound No. 1-23, 7-(4-Isopropylsulfonyloxy-2-methoxyphenyl)-8-(5-methylthiophen-2-ylcarbonyloxymethyl)-1,3,3-trimethyl-3,4-dihydro-1H-quinoxalin-2-one] registered an Emax in assay [1] of 83%. For the same compound, the “The inhibition ratio … (%)” value in assay [2] is given as 10%.

`COc1cc(OS(=O)(=O)CC(C)C)ccc1-c1ccc2c(c1COc1cc(F)ccc1C)N(C)C(=O)C(C)(C)N2` [Compound No. 1-11, 8-(5-Fluoro-2-methylphenoxymethyl)-7-(4-isobutylsulfonyloxy-2-methoxyphenyl)-1,3,3-trimethyl-3,4-dihydro-1H-quinoxalin-2-one] had a maximal effect (Emax) in assay [1] of 99%. In addition, in assay [2], the “The inhibition ratio … (%)” value is 20%.
